The structures appear in SMILES notation. Records with an inconclusive call do not appear. Active and inactive are the calls of the source.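 The calls were made as follows: active = Compounds that reduce signal, with fitted half-maximal dose at or under twice the top valid tested dose; inconclusive = Poor fit, or flat curve losing 30 to 70% of signal; inactive = Potency past limit, flat within 30%, or opposite direction.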

The first test can be described thus: viability loss in HEK293T cells – cell-based, ATP luminescence, cherry-pick samples, cytotoxicity control, dose response (AID 687005). Conditions: HEK293T viability, ATP luminescence (CellTiter-Glo), 48 h; at 23.5 µM (top of the series).
In the case of `O=C(NC1CCCCC1)N[C@H]1C=C[C@@H](CC(=O)N2CCOCC2)O[C@H]1CO`, the activity change, negative = cytotoxicity was 14.2% (inactive). In the case of `C[C@@H]1CCCCO[C@@H](CN(C)Cc2ccc3c(c2)OCO3)[C@@H](C)CN([C@H](C)CO)C(=O)c2cc(NS(=O)(=O)c3ccc(F)cc3)ccc2O1`, the activity change, negative = cytotoxicity was -35.2% (inactive). The same measure, in the same setting: the figure for `C[C@H](CO)N1C[C@H](C)[C@H](CN(C)C(=O)Nc2cccc3ccccc23)Oc2ccc(NC(=O)Cc3ccccc3)cc2CC1=O` is 10.3% (inactive).

Turning to `CO[C@@H]1CN(C)C(=O)c2ccc(NC(C)=O)cc2OC[C@@H](C)N(C(=O)c2ccccn2)C[C@H]1C`, the activity change, negative = cytotoxicity is 14.8% (inactive). On the same count and under the same terms, to `CC(C)NC(=O)Nc1ccc2c(c1)C(=O)N([C@@H](C)CO)C[C@@H](C)[C@@H](CN(C)C(=O)NC1CCCCC1)OCCCC[C@H](C)O2` belongs -7.35% (inactive); to `C[C@H](CO)N1C[C@H](C)[C@H](CN(C)Cc2cccc(C(F)(F)F)c2)OCc2cnnn2CCCC1=O`, 0.8% (inactive).

With `C[C@H]1CN([C@@H](C)CO)C(=O)Cc2cc(NC(=O)Nc3ccccc3)ccc2O[C@@H]1CN(C)C(=O)Nc1ccc2c(c1)OCO2`, the activity change, negative = cytotoxicity was -18.7% (inactive).

Still in this test, the particulars now being: HEK293T viability, ATP luminescence (CellTiter-Glo), 48 h; at 26 µM (top of the series).
As to `CCCNC(=O)N(C)C[C@@H]1Oc2ncc(C#CC3CCCCC3)cc2C(=O)N([C@H](C)CO)C[C@@H]1C`, the activity change, negative = cytotoxicity was -14% (inactive). `CC(C)NC(=O)Nc1ccc2c(c1)C(=O)N([C@@H](C)CO)C[C@@H](C)[C@H](CN(C)C(=O)c1ccncc1)OCCCC[C@H](C)O2`: the activity change, negative = cytotoxicity is 23.3% (inactive). For `CO[C@@H]1CN(C)C(=O)c2ccc(NC(=O)C3CC3)cc2OC[C@H](C)N(C(=O)c2ccncc2)C[C@H]1C`, the activity change, negative = cytotoxicity was -27.7% (inactive). For `O=C([C@@H]1[C@@H](CO)[C@@H]2Cn3c(cccc3=O)[C@H]1N2Cc1cccc(Cl)c1)N1CCOCC1`, the activity change, negative = cytotoxicity was -9.53% (inactive).

For `CCCN(C)C[C@@H]1OCCCC[C@H](C)Oc2ccc(NS(=O)(=O)c3ccc(C)cc3)cc2C(=O)N([C@H](C)CO)C[C@@H]1C`, the activity change, negative = cytotoxicity was 37.3% (inactive). For `CC(C)NC(=O)Nc1ccc2c(c1)CC(=O)N([C@H](C)CO)C[C@H](C)[C@@H](CN(C)C(=O)Nc1ccc3c(c1)OCO3)O2`, the activity change, negative = cytotoxicity is 31.9% (inactive).

As for `COc1ccccc1NC(=S)NCc1ccc(Cl)cc1`, the activity change, negative = cytotoxicity was -4.64% (inactive). Still for that read-out and setting: the figure for `CCC(=O)N[C@@H]1C=C[C@H](CC(=O)NCC2CCCCC2)O[C@H]1CO` is -35.2% (inactive); for `C[C@H]1CN([C@@H](C)CO)C(=O)c2cc(-c3cncnc3)cnc2O[C@H]1CN(C)C(=O)c1ccccc1F` it is 4.74% (inactive). On the same count and under the same terms, the figure for `O=S1(=O)CCC(N=Cc2cc(Br)ccc2O)C1` (centres undefined) is 37.7% (inactive); for `CCNC(=O)C[C@H]1CC[C@@H](NC(=O)NC2CCCCC2)[C@H](CO)O1` it is -2.42% (inactive); for `O=C(Cc1ccccc1)N[C@H]1C=C[C@@H](CC(=O)N2CCOCC2)O[C@H]1CO` it is 8.54% (inactive). On the same count and under the same terms, to `C[C@H](CO)N1C[C@H](C)[C@@H](CN(C)C(=O)Nc2cccc3ccccc23)Oc2c(cccc2N(C)C)C1=O` belongs 49.5% (inactive); to `CCNC(=O)CN(c1ccccc1)S(=O)(=O)c1ccc(Cl)cc1`, -16.3% (inactive). Consider `C[C@H]1CN([C@@H](C)CO)C(=O)CCCn2nncc2CO[C@H]1CN(C)C(=O)Oc1cccc2ccccc12`, for which the activity change, negative = cytotoxicity was -6.41% (inactive).

`COc1ccc(NC(=O)N(C)C[C@H]2OCc3ccccc3-c3c(n(C)c4ccccc34)C(=O)N([C@H](C)CO)C[C@@H]2C)cc1`: the activity change, negative = cytotoxicity was -4.07% (inactive). On to `CNC(=O)C[C@H]1CC[C@H]2[C@@H](COc3ccc(NC(=O)Nc4cccc(C#N)c4)cc3C(=O)N2C)O1`, for which the activity change, negative = cytotoxicity was 23.1% (inactive).

As for `CCCNC(=O)N(C)C[C@@H]1Oc2ncc(C#CCc3ccccc3)cc2C(=O)N([C@@H](C)CO)C[C@@H]1C`, the activity change, negative = cytotoxicity is 12% (inactive). For `CCC(=O)N1[C@@H]2c3cccc(=O)n3C[C@H]1[C@H](CO)[C@H]2C(=O)NCc1ccccc1`, the activity change, negative = cytotoxicity was -16.7% (inactive). For the compound `C[C@@H]1CN([C@@H](C)CO)C(=O)c2cc(-c3ccc(C#N)cc3)cnc2O[C@@H]1CN(C)C(=O)Nc1ccc(F)cc1`, the activity change, negative = cytotoxicity is 5.67% (inactive). The same measure, in the same setting: to `CNC(=O)CSc1ncnc2c1cnn2-c1ccccc1` belongs 10.1% (inactive); to `CCNC(=O)C[C@@H]1CC[C@H]2[C@@H](COC[C@@H](O)CN2S(=O)(=O)c2ccccc2F)O1`, 51.2% (inactive); to `Cc1ccccc1S(=O)(=O)N[C@@H]1CC[C@H](CCNS(=O)(=O)c2cccc(F)c2)O[C@H]1CO`, -17.7% (inactive).

With `CCCNC(C)C(=O)Nc1ccccc1C` (centres undefined), the activity change, negative = cytotoxicity was -25.6% (inactive). On the same count and under the same terms, to `O=C(C[C@@H]1C[C@@H]2c3cc(NC(=O)C4CCC4)ccc3O[C@@H]2[C@H](CO)O1)NCc1cccc(F)c1` belongs 3.17% (inactive); to `C[C@@H]1CN([C@@H](C)CO)C(=O)Cc2cc(NS(=O)(=O)c3ccccc3)ccc2O[C@@H]1CN(C)Cc1ccc(Cl)c(Cl)c1`, -71.5% (inactive); to `CC(C)NC(=O)N(C)C[C@H]1Oc2c(NS(=O)(=O)c3ccc(Cl)cc3)cccc2C(=O)N([C@@H](C)CO)C[C@@H]1C`, -20.3% (inactive).

For `CC(C)NC(=O)Nc1ccc2c(c1)C(=O)N([C@@H](C)CO)C[C@@H](C)[C@H](CN(C)C(=O)Cc1ccccc1)OCCCC[C@@H](C)O2`, the activity change, negative = cytotoxicity was 37.8% (inactive).

As to `C[C@@H]1CCCCO[C@H](CN(C)Cc2ccncc2)[C@@H](C)CN([C@H](C)CO)C(=O)c2cc(N(C)C)ccc2O1`, the activity change, negative = cytotoxicity was -3.32% (inactive). As for `CO[C@H]1CC[C@@H]2CCOc3c(C#N)cccc3C(=O)N(C)C[C@H](OC)[C@@H](C)C(=O)N(C)C[C@@H]1O2`, the activity change, negative = cytotoxicity is -0.939% (inactive). As for `C[C@@H]1CN([C@@H](C)CO)C(=O)c2cc(NC(=O)C3CCCCC3)ccc2O[C@@H](C)CCCCO[C@@H]1CN(C)C(=O)NC1CCCCC1`, the activity change, negative = cytotoxicity is 8.91% (inactive). Consider `Cc1cccc(C)c1NC(=O)C(C)N1CCCC1` (centres undefined), for which the activity change, negative = cytotoxicity was -44.2% (inactive).

With `C[C@@H]1CN([C@H](C)CO)C(=O)c2cc(NC(=O)Nc3cccc4ccccc34)ccc2O[C@@H]1CN(C)C(=O)Nc1ccccc1`, the activity change, negative = cytotoxicity was -5.06% (inactive). For the compound `CC(C)NC(=O)NCC[C@H]1CC[C@H](NC(=O)CN(C)C)[C@H](CO)O1`, the activity change, negative = cytotoxicity was 7.79% (inactive). Same read-out and setting: the figure for `O=C(C[C@H]1C=C[C@H](NC(=O)Nc2cc(F)ccc2F)[C@@H](CO)O1)NCCCN1CCOCC1` is 27.4% (inactive); for `COc1ccc(N2CCN(C(=O)CSc3ncnc4c3cnn4-c3ccc(OC)cc3)CC2)cc1` it is -4.11% (inactive); for `C[C@H]1CN([C@@H](C)CO)C(=O)c2cccc(N(C)C)c2O[C@@H]1CN(C)C(=O)Nc1cccc2ccccc12` it is -6.36% (inactive). Take `C[C@H](CO)N1C[C@H](C)[C@H](CN(C)C(=O)NC2CCCCC2)OCCCC[C@H](C)Oc2ccc(NC(=O)C3CCCCC3)cc2C1=O`: the activity change, negative = cytotoxicity is 15% (inactive). As for `COc1ccc(NC(=O)N(C)C[C@H]2OCCCC[C@@H](C)Oc3ccc(N(C)C)cc3C(=O)N([C@H](C)CO)C[C@H]2C)cc1`, the activity change, negative = cytotoxicity is -1% (inactive). For `CCNC(=O)C[C@H]1CC[C@H](NC(=O)NC2CCCCC2)[C@@H](CO)O1`, the activity change, negative = cytotoxicity was -1.55% (inactive).

With `Cc1noc(C)c1S(=O)(=O)Nc1ccc2c(c1)C(=O)N([C@H](C)CO)C[C@H](C)[C@H](CN(C)Cc1ccncc1)O2`, the activity change, negative = cytotoxicity was 37.8% (inactive).

Regarding `O=C(C[C@@H]1CC[C@H]2[C@@H](COC[C@H](O)CN2Cc2cccc(C(F)(F)F)c2)O1)NCc1ccccc1`, the activity change, negative = cytotoxicity is -14.1% (inactive). Same read-out and setting: the figure for `CO[C@H]1CC[C@@H]2CCOc3c(C#N)cccc3C(=O)N(C)C[C@@H](OC)[C@@H](C)C(=O)N(C)C[C@@H]1O2` is -16.3% (inactive); for `Cc1ccc(S(=O)(=O)N[C@H]2CC[C@H](CC(=O)NCc3ccccc3F)O[C@H]2CO)cc1` it is 8.09% (inactive); for `CNC[C@@H]1Oc2c(NS(=O)(=O)c3ccc(Cl)cc3)cccc2C(=O)N([C@H](C)CO)C[C@H]1C` it is 24.2% (inactive). Same read-out and setting: to `CNC[C@H]1OCCCC[C@H](C)Oc2ccc(NC(=O)CCCN(C)C)cc2C(=O)N([C@H](C)CO)C[C@@H]1C` belongs 15.7% (inactive); to `O=C(C[C@H]1CC[C@H]2[C@@H](COC[C@@H](O)CN2S(=O)(=O)c2ccc(Oc3ccccc3)cc2)O1)NC1CCC1`, 16.3% (inactive); to `O=C(CSc1ncnc2c1cnn2-c1ccccc1)NC1CCS(=O)(=O)C1` (centres undefined), 5% (inactive).

Turning to `Cc1cc(C)c(NC(=O)C2CCCN2C)c(C)c1` (centres undefined), the activity change, negative = cytotoxicity was 10.5% (inactive).

Staying with this test, now noted: HEK293T viability, ATP luminescence (CellTiter-Glo), 48 h; at 28.5 µM (top of the series).
`Cc1ccc(N(CC(N)=O)S(=O)(=O)c2ccc(F)cc2)cc1`: the activity change, negative = cytotoxicity is -28% (inactive).

With `COC(=O)C1=C(C)N(Cc2ccc(F)cc2)C(=S)NC1c1ccccc1` (centres undefined), the activity change, negative = cytotoxicity is 17.5% (inactive).

Still in this test, the particulars now being: HEK293T viability, ATP luminescence (CellTiter-Glo), 48 h; at 30 µM (top of the series).
As for `NC(=O)CN(c1ccccc1)S(=O)(=O)c1ccc(F)cc1`, the activity change, negative = cytotoxicity was -2.68% (inactive).

Source of the values: PubChem BioAssay AID687005 (Broad Institute, 2013).
